Legend:
Format in all cases: cell-based
[1] = target: T1, human 5-HT3-C (Homo sapiens, UniProt Q8WXA8); assay: Two-electrode voltage clamp, Xenopus oocytes injected with 5-HT3-C cRNA alone; settings: oocytes injected with 33.5 ng 5-HT3-C
T1 construct: Characterization of the Function of Protein Encoded by p5HT3CR in Xenopus oocvtes; expressed in transfected cells; host or cells: Xenopus laevis oocytes injected with in vitro transcribed cRNA (pGEM HE)
T1 sequence (Q8WXA8 28-447): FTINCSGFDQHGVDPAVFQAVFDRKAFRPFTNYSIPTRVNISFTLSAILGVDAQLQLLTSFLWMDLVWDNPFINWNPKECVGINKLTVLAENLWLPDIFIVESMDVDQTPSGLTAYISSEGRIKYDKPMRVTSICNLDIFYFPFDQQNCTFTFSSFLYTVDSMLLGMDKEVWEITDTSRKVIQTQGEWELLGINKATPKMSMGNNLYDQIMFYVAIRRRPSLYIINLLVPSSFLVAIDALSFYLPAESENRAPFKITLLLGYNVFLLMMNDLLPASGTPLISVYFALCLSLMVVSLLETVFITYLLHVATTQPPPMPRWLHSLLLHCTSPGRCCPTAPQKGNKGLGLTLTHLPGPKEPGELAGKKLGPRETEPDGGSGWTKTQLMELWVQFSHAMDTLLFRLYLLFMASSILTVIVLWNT
Method: (§1) Characterization of the Function of Protein Encoded by p5HT3CR in Xenopus oocvtes Xenopus laevis oocytes were prepared and injected using standard methods previously described and known in the art (Fraser et al., 1993). Ovarian lobes from adult female Xenopus laevis (Nasco, Fort Atkinson, Wis.) were teased apart, rinsed several times in nominally Ca-free saline containing (in mM): NaCl 82.5, KCl 2.5, MgCl2 1, HEPES 5, adjusted to pH 7.0 with NaOH(OR-2), and gently shaken in OR-2 containing 0.2% collagenase Type 1 (ICN Biomedicals, Aurora, Ohio) for 2–5 hours. When approximately 50% of the follicular layers were removed, Stage V and VI oocytes were selected and rinsed in media consisting of 75% OR-2 and 25% ND-96. The ND-96 contained (in mM): NaCl 100, KCl 2, MgCl2 1, CaCl2 1.8, HEPES 5, Na pyruvate 2.5, gentamicin (50 ug/ml), adjusted to pH 7.0 with NaOH. […] For in vitro transcription, pGEM HE (Liman et al., 1992) containing human 5-HT3-A (Genbank D49394) or 5-HT3-C cDNA was linearized with NheI and transcribed with T7 RNA polymerase (Stratagene) in the presence of the cap analog m7G(5′)ppp(5′)G. The synthesized cRNA was purified with a Sephadex G-50 spin column. […] Control oocytes were injected with 50 nl of water. Oocytes were incubated for 2–14 days in ND-96 before analysis for expression of the human 5-HT3-C. Incubations and collagenase digestion were carried out at room temperature. Injected oocytes were maintained in 48 well cell culture clusters (Costar, Cambridge, Mass.) at 18° C. Whole cell agonist-induced currents were measured 1–14 days after injection with a conventional two-electrode voltage clamp (GeneClamp500, Axon Instruments, Foster City, Calif.) using standard methods previously described and known in the art (Dascal, 1987). The microelectrodes were filled with 3 M KCl, which had resistances of 1 and 2 MΩ. Cells were continuously perfused with ND96 at 10 ml/min at room temperature unless indicated. Membrane voltage was clamped at −70 mV unless indicated.

[2] = target: T2, long form of human 5-HT3-A together with 5-HT3-C (Homo sapiens, UniProt P46098+Q8WXA8); assay: Two-electrode voltage clamp, oocytes co-injected with long form of human 5-HT3-A and 5-HT3-C; settings: 100 μM; n=2
T2 construct: Characterization of the Function of Protein Encoded by p5HT3CR in Xenopus oocvtes; expressed in transfected cells; host or cells: Xenopus laevis oocytes co-injected with cRNAs
T2 sequence (P46098 24-510 isoform P46098-2): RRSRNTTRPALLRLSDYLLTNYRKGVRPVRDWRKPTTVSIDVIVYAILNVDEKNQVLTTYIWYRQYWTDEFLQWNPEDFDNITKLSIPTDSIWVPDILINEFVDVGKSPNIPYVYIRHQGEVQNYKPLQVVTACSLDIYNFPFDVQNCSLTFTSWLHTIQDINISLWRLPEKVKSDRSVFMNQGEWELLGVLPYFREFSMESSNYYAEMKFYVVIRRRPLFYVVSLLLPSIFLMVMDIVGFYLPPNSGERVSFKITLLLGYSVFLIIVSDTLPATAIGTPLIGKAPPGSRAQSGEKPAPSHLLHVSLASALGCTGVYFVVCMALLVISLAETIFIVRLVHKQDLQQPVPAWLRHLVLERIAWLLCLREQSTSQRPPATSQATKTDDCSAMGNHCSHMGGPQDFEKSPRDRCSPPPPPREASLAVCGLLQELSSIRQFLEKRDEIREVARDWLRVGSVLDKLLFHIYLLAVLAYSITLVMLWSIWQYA
T2 sequence (Q8WXA8 28-447): T1 sequence (Q8WXA8 28-447)
Method: Characterization of the Function of Protein Encoded by p5HT3CR in Xenopus oocvtes Xenopus laevis oocytes were prepared and injected using standard methods previously described and known in the art (Fraser et al., 1993). Ovarian lobes from adult female Xenopus laevis (Nasco, Fort Atkinson, Wis.) were teased apart, rinsed several times in nominally Ca-free saline containing (in mM): NaCl 82.5, KCl 2.5, MgCl2 1, HEPES 5, adjusted to pH 7.0 with NaOH(OR-2), and gently shaken in OR-2 containing 0.2% collagenase Type 1 (ICN Biomedicals, Aurora, Ohio) for 2–5 hours. When approximately 50% of the follicular layers were removed, Stage V and VI oocytes were selected and rinsed in media consisting of 75% OR-2 and 25% ND-96. The ND-96 contained (in mM): NaCl 100, KCl 2, MgCl2 1, CaCl2 1.8, HEPES 5, Na pyruvate 2.5, gentamicin (50 ug/ml), adjusted to pH 7.0 with NaOH. […] Whole cell agonist-induced currents were measured 1–14 days after injection with a conventional two-electrode voltage clamp (GeneClamp500, Axon Instruments, Foster City, Calif.) using standard methods previously described and known in the art (Dascal, 1987). […]

[3] = target: T3, 5-HT3-B and 5-HT3-C (Homo sapiens, UniProt O95264+Q8WXA8); assay: Two-electrode voltage clamp, oocytes co-injected with 5-HT3-B and 5-HT3-C; settings: 10 μM; 5-HT3-B 3.3 ng, 5-HT3-C 3.35 ng/oocyte
T3 construct: Characterization of the Function of Protein Encoded by p5HT3CR in Xenopus oocvtes; expressed in transfected cells; host or cells: Xenopus laevis oocytes co-injected with cRNAs
T3 sequence (O95264 22-441): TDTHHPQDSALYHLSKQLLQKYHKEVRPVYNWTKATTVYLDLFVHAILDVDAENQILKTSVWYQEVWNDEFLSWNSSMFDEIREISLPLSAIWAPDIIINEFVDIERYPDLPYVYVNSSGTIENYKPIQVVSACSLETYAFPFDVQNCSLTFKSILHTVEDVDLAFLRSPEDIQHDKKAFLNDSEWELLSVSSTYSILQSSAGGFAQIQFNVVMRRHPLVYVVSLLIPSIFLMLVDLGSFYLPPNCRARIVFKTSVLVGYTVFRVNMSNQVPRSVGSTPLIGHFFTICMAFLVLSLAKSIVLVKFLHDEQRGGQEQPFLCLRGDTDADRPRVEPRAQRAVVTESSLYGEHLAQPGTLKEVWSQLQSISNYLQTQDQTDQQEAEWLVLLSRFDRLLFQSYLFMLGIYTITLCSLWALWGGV
T3 sequence (Q8WXA8 28-447): T1 sequence (Q8WXA8 28-447)
Method: as §1

[4] = target: T4, α3β4 receptors together with 5-HT3-C (Homo sapiens, UniProt P30926+P32297); assay: Two-electrode voltage clamp, oocytes expressing nicotinic ACh α3β4 receptors together with 5-HT3-C
T4 construct: expressed in transfected cells; host or cells: Xenopus laevis oocytes co-injected with cRNAs
T4 sequence (P32297 32-505): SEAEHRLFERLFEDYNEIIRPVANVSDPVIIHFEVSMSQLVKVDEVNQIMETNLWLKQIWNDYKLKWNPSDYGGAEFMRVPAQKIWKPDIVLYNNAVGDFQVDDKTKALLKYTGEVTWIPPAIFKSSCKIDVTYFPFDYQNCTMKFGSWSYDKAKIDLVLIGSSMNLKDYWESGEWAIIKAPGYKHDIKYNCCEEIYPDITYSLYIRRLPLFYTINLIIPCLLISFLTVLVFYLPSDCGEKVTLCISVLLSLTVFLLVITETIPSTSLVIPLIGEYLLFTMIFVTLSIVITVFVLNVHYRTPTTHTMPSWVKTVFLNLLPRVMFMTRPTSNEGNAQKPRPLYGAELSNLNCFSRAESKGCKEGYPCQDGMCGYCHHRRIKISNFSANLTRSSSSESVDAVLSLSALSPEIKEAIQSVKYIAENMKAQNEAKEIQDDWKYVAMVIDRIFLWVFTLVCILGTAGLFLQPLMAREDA
T4 sequence (P30926 22-498): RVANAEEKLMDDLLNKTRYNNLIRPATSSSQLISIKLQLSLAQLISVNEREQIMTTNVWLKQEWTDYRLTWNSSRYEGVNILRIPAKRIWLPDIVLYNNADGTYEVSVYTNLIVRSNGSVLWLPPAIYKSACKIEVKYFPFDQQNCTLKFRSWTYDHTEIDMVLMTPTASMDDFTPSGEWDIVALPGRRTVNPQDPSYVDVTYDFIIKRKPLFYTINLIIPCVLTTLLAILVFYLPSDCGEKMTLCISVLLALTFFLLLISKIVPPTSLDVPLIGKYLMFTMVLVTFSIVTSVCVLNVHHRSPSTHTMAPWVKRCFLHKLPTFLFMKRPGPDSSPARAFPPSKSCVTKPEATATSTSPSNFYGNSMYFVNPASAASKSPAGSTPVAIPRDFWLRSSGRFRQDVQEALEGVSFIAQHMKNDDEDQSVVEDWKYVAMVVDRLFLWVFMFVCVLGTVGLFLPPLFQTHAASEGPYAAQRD

[5] = target: T5, nicotinic ACh α3β4 receptors (Homo sapiens, UniProt P30926+P32297); assay: Two-electrode voltage clamp, oocytes expressing nicotinic ACh α3β4 receptors
T5 construct: expressed in transfected cells; host or cells: Xenopus laevis oocytes injected with cRNA
T5 sequence (P32297 32-505): as the sequence (P32297 32-505) above
T5 sequence (P30926 22-498): as the sequence (P30926 22-498) above

[6] = target: T6, 5-HT3-C together with nicotinic ACh receptor a6 subunit (Homo sapiens, UniProt Q15825+Q8WXA8); assay: Two-electrode voltage clamp, oocytes injected with 5-HT3-C together with nicotinic ACh receptor α6 subunit; settings: 10 μM; eight days after injection; 5-HT3-C 0.67 ng, a6 1 ng/oocyte
T6 construct: Characterization of the Function of Protein Encoded by p5HT3CR in Xenopus oocvtes; expressed in transfected cells; host or cells: Xenopus laevis oocytes injected with cRNA
T6 sequence (Q15825 26-494, one chain of several): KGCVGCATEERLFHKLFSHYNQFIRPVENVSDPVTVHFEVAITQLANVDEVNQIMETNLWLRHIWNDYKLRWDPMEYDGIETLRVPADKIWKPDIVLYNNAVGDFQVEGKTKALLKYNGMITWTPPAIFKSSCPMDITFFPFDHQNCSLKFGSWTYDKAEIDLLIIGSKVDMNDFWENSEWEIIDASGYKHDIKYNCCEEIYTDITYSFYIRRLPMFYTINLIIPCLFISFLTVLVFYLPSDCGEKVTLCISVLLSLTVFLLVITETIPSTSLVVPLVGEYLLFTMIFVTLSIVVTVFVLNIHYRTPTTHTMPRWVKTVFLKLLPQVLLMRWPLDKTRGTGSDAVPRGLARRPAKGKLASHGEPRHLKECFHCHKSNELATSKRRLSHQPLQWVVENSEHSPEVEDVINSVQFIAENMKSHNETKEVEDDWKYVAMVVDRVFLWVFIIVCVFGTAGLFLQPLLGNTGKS
Method: Characterization of the Function of Protein Encoded by p5HT3CR in Xenopus oocvtes Xenopus laevis oocytes were prepared and injected using standard methods previously described and known in the art (Fraser et al., 1993). Ovarian lobes from adult female Xenopus laevis (Nasco, Fort Atkinson, Wis.) were teased apart, rinsed several times in nominally Ca-free saline containing (in mM): NaCl 82.5, KCl 2.5, MgCl2 1, HEPES 5, adjusted to pH 7.0 with NaOH(OR-2), and gently shaken in OR-2 containing 0.2% collagenase Type 1 (ICN Biomedicals, Aurora, Ohio) for 2–5 hours. When approximately 50% of the follicular layers were removed, Stage V and VI oocytes were selected and rinsed in media consisting of 75% OR-2 and 25% ND-96. The ND-96 contained (in mM): NaCl 100, KCl 2, MgCl2 1, CaCl2 1.8, HEPES 5, Na pyruvate 2.5, gentamicin (50 ug/ml), adjusted to pH 7.0 with NaOH. […] For in vitro transcription, pGEM HE (Liman et al., 1992) containing human 5-HT3-A (Genbank D49394) or 5-HT3-C cDNA was linearized with NheI and transcribed with T7 RNA polymerase (Stratagene) in the presence of the cap analog m7G(5′)ppp(5′)G. The synthesized cRNA was purified with a Sephadex G-50 spin column. Oocytes were injected with 50 nl of the human serotonin 5-HT3-A receptor with or without the 5-HT3-C RNA (0.02 and 0.002–0.2 ng each) or other channel or receptor subunit. Control oocytes were injected with 50 nl of water. Oocytes were incubated for 2–14 days in ND-96 before analysis for expression of the human 5-HT3-C. Incubations and collagenase digestion were carried out at room temperature. Injected oocytes were maintained in 48 well cell culture clusters (Costar, Cambridge, Mass.) at 18° C. Whole cell agonist-induced currents were measured 1–14 days after injection with a conventional two-electrode voltage clamp (GeneClamp500, Axon Instruments, Foster City, Calif.) using standard methods previously described and known in the art (Dascal, 1987). The microelectrodes were filled with 3 M KCl, which had resistances of 1 and 2 MΩ. […]

| effect of agonist (agonist-induced current) ([1]; 100 μM) | effect of agonist (agonist-induced current) ([1]; 500 μM) | sensitivity of oocytes to agonist [2] | SMILES | responsiveness of oocytes to agonist [3] | Peak currents [4] | effect of 5-HT3-C co-injection on epibatidine-activated currents [4] | effect of 5-HT3-C on t80, time to peak and degree of desensitization to a second epibatidine stimulus [4] | Peak currents [5] | responsiveness of oocytes to agonist [6] |
| --- | --- | --- | --- | --- | --- | --- | --- | --- | --- |
| no effect | no effect | insensitive | NC(N)=NC(N)=Nc1ccccc1 [1-PBG] | – | – | – | – | – | – |
| – | – | – | Clc1ccc(C2CC3CCC2N3)cn1 (stereo not drawn) [epibatidine] | unresponsive | 6.49+/−0.69 nA | no effect | no effect | −6.93+/−1.45 nA | not responsive |
